Here are results for five compounds from paper PMC9919591, “New Triazine Derivatives as Serotonin 5-HT6 Receptor Ligands” (Molecules, 2023).

The conditions of data set [1]: PAMPA, study b; cited from earlier work.
Data set [2] in a line: PAMPA assay (BBB penetration, passive transport). It counts as in vitro ADME. The following applies: study a. From the text:
This test is a very popular method for assessing BBB penetration via passive transport.

A further data set concerns HepG2 cells. Nature of the data set: Hepatotoxicity, MTS assay on HepG2 cells. In kind it is cell-based, human. How it is done:
Some substances can lead to liver damage. To eliminate this risk, hepatotoxicity tests are carried out as early as the pre-clinical development phase. One of the methods commonly used to assess the adverse effect of tested compounds on cell viability is the MTT assay, and the most popular cell lines are HepG2 and HepaRG (the human hepatocellular carcinoma cells). To evaluate the toxic effect of compound 3, the MTS assay (one-step MTT assay variant) was performed on the HepG2 cells. HepG2 cells were incubated with increasing concentrations (0.78–50 µM) of compound 3 for 48 h. After that time, the MTS reagent was added and incubated for 1 h. Next the absorbance was read at 490 nm.
The hepatoma cell line HepG2 (ATCC® HB-8065TM) was used to assess the hepatotoxicity of the compounds according to previously described protocols. The CellTiter 96® AQueous Non-Radioactive Cell Proliferation Assay was purchased from Promega (Madison, WI, USA). Compound 3 was tested in two independent experiments in triplicate at seven concentrations (0.78, 1.56, 3.125, 6.25, 12.5, 25 and 50 µM) for […].

The next data set has as its target T1, human D2R (Homo sapiens, UniProt P14416).
T1 construct: expressed in transfected cells; host or cells: HEK293
Briefly: Radioligand binding assay, D2R ([3H]-raclopride). The following applies: HEK293 cells stably expressing human D2R. How it is done: (§1) Affinity for serotonin 5-HT2A, 5-HT7 and dopamine D2 receptors (D2R) as protein off-targets was evaluated in the radioligand binding assays. In CHO-K1 cells, it was stably expressed human 5-HT2AR, whereas human 5-HT7R and D2R were stably expressed in HEK293 cells. […] A particularly weak affinity towards this receptor was shown through compounds of series 1 (compounds 1–7) and series 2 (compounds 8–13). […]. Radioligand binding assays were used to determine the affinity of the synthesized compounds for human serotonin 5-HT6R, 5-HT2AR, 5-HT7R and dopamine D2R, which were stably expressed in HEK293 cells or CHOk1 cells (5-HT2AR). This was done as described previously.

Another data set addresses T2, human 5-HT6R (Homo sapiens, UniProt P50406).
T2 construct: expressed in transfected cells; host or cells: HEK293
Briefly: Radioligand binding assay, 5-HT6R ([3H]-LSD). The following applies: [3H]-LSD; HEK293 cells stably expressing human 5-HT6R; average of at least two independent experiments. As to the method: The affinity of compounds (1–25) for 5-HT6R was evaluated in the radioligand binding assay in HEK293 cells stably expressing human 5-HT6R. [^3H]-LSD as a radioligand was used. […] All results are collected in Table 1, Table 2 and Table 3.
Radioligand binding assays were used to determine the affinity of the synthesized compounds for human serotonin 5-HT6R, 5-HT2AR, 5-HT7R and dopamine D2R, which were stably expressed in HEK293 cells or CHOk1 cells (5-HT2AR). This was done as described previously.

In the next data set the target is T3, human 5-HT7R (Homo sapiens, UniProt P34969).
T3 construct: expressed in transfected cells; host or cells: HEK293
Nature of the data set: Radioligand binding assay, 5-HT7R ([3H]-5-CT). As to the method:
as §1

A further data set concerns the target T4, human 5-HT2AR (Homo sapiens, UniProt P28223).
T4 construct: expressed in transfected cells; host or cells: CHO-K1
Briefly: Radioligand binding assay, 5-HT2AR ([3H]-ketanserin). Conditions: CHO-K1 cells stably expressing human 5-HT2AR. How it is done: as §1

[3] abbreviates: HEK293 cells stably expressing human 5-HT7R.

The structures appear in SMILES notation. Values joined by “and” are separate entries in the source; they are usually repeats but may differ in a detail not shown here. Equal entries are not always repeated. Where two headings read alike, the source gives them in different places.

T3 sequence (P34969 whole entry): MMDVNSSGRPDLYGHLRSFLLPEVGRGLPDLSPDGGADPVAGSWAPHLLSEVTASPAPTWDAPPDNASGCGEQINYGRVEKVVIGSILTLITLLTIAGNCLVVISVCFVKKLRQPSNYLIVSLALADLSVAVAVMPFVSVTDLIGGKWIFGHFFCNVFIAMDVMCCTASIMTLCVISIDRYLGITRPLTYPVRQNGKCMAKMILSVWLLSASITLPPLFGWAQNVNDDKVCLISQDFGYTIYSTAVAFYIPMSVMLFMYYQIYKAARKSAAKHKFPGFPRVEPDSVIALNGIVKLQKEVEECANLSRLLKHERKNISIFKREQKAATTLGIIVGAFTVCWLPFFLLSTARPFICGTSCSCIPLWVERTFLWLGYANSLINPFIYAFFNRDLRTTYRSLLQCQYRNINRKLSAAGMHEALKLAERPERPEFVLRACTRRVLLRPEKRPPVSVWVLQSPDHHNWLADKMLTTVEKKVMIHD
T1 sequence (P14416 whole entry): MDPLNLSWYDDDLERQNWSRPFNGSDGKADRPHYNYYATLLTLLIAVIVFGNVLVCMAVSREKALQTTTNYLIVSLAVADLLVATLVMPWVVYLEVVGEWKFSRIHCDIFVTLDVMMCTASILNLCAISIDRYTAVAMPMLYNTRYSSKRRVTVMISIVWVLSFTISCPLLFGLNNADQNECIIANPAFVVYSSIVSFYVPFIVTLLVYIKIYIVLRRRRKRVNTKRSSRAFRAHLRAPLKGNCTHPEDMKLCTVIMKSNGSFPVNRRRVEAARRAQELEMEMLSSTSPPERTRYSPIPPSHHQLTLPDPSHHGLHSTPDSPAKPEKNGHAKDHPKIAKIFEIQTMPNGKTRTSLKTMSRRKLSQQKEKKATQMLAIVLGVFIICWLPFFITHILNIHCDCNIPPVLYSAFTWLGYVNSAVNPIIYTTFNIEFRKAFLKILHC
T4 sequence (P28223 whole entry): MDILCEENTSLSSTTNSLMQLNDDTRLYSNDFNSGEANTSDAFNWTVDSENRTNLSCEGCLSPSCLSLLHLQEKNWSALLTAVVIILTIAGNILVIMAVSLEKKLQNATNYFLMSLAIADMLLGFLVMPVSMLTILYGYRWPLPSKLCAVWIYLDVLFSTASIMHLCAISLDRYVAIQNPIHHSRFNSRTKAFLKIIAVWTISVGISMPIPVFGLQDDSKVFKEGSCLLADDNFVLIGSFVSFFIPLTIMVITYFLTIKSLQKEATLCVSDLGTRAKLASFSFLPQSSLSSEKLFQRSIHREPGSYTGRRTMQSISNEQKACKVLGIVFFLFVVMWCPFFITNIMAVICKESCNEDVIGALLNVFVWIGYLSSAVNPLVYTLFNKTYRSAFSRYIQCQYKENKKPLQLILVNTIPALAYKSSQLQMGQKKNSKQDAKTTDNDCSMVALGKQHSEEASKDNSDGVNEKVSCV
T2 sequence (P50406 whole entry): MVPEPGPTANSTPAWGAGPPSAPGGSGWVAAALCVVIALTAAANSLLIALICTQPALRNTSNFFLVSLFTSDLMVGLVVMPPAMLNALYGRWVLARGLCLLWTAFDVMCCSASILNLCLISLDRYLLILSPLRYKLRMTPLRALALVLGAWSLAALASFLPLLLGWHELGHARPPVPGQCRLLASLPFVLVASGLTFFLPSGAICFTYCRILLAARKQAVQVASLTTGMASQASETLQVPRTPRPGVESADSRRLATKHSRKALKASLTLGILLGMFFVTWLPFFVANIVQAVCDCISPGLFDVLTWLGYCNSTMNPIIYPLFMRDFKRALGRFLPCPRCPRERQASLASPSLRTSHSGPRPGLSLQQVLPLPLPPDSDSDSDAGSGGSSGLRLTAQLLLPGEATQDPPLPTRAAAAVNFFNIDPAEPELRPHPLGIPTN

For `Cc1ccc(C(C)C)c(OCc2nc(N)nc(N3CCN(C)CC3)n2)c1` [MST4, 4-((2-isopropyl-5-methylphenoxy)methyl)-6-(4-methylpiperazin-1-yl)-1,3,5-triazin-2-amine], in data set [1], the “Pe ± SD” value was 12.3 ×10^−6 cm/s and 12.3 ± 2.0 ×10^−6 cm/s.

As for `CN1CCN(c2nc(N)nc(COc3ccccc3C(C)(C)C)n2)CC1` [Compound 3, 4-((2-(tert-Butyl)phenoxy)metyl)-6-(4-methylpiperazin-1-yl)-1,3,5-triazin-2-amine], the melting point was 107 to 109 °C. Further, the “Pe ± SD” value in data set [2] is 4.7 ×10⁻⁶ cm/s. For the same compound, in data set [2] (read-out: Pe ± SD), the Papp came to 4.7 ± 0.2 ×10⁻⁶ cm/s. Also, in the data set on HepG2 cells (HepG2, MTS assay), the “hepatotoxicity (conclusion in words)” value is listed as “moderate hepatotoxicity”. Also, the IC50 with HepG2 cells (Homo sapiens, HepG2, MTS assay, 0.78–50 µM, 48 h incubation (72 h elsewhere in the source), read-out: IC50 (HepG2 cells' viability)) stood at 46600 nM. Also, on human D2R, the Ki was determined as 1620 nM. Moreover, affinity at human 5-HT6R was put at a Ki of 13 nM. In addition, on human 5-HT7R (setting [3]), the Ki amounted to 6340 nM. On human 5-HT7R (compound 3 and its salts), the Ki was 6340 nM. Also, affinity at human 5-HT2AR was put at a Ki of 2180 nM.

Take `Cn1c(=O)c2c(ncn2C)n(C)c1=O` [CFN, Caffeine]: in data set [1], the “Pe ± SD” value was 15.1 ± 0.4 ×10^−6 cm/s.

Regarding `CC(C)c1ccccc1OCCCc1nc(N)nc(N2CCN(C)CC2)n1.Cl` [Compound 15, 4-(3-(2-Isopropylphenoxy)propyl)-6-(4-methylpiperazin-1-yl)-1,3,5-triazin-2-amine hydrochloride], the melting point came to 235 °C. Also, the affinity on human D2R corresponds to a Ki of 2430 nM. The compound further returned a Ki at human 5-HT6R of 221 nM. On human 5-HT7R (setting [3]), this compound yielded a Ki of 8870 nM. Affinity at human 5-HT2AR was put at a Ki of 489 nM.

On to `Cc1ccc(C(C)(C)C)c(OCc2nc(N)nc(N3CCN(C)CC3)n2)c1.Cl` [Compound 8, 4-((2-(tert-Butyl)-5-methylphenoxy)methyl)-6-(4-methylpiperazin-1-yl)-1,3,5-triazin-2-amine hydrochloride], for which the melting point was 259 °C (dec.). This compound also returned a Ki on human D2R of 1570 nM. Further, at human 5-HT6R, the Ki is 6 nM. In addition, on human 5-HT7R (setting [3]), the affinity, expressed as Ki, was 15100 nM. Besides, affinity at human 5-HT2AR was put at a Ki of 1240 nM.
